ChEMBL document CHEMBL3885861, “Open TG-GATES”

Organism: Rattus norvegicus
Assay: Open TG-GATES - Regimen: Single
Assay type: toxicity, organism-based, Sprague-Dawley
Parameters: regimen Single, gender Male, age 6 weeks
Settings: in vivo, iv, 12 mg/kg, route intravenous injection, dose level Low; for APTT / Bas / Eos / Fbg / Hb / Ht / Lym / MCH / MCHC / MCV / Mono / Neu / PT / Plat / RBC / Ret / WBC: tissue Blood; for KIDNEY_L / KIDNEY_R / KIDNEY_TOTAL: tissue Kidney; for LIVER: tissue Liver; for A/G / ALP / ALT / AST / BUN / CRE / Ca / Cl / DBIL / GLC / IP / K / LDH / Na / PL / RALB / TBIL / TC / TG / TP / gamma-GTP: tissue Plasma

CN(C)c1ncnc2c1ncn2[C@@H]1O[C@H](CO)[C@@H](N)[C@H]1O [PUROMYCIN AMINONUCLEOSIDE]
TERMINAL_BW (3 h): 215.3 g | APTT (3 h): 22.9 s | Bas (3 h): 0% | Eos (3 h): 0.8% | Fbg (3 h): 276 mg/dL | Hb (3 h): 13.1 g/dL | Ht (3 h): 38.5% | Lym (3 h): 69.6% | MCH (3 h): 21.4 pg | MCHC (3 h): 33.9% | MCV (3 h): 63.1 fL | Mono (3 h): 4% | Neu (3 h): 24.4% | PT (3 h): 16 s | Plat (3 h): 119.9 x10_4/uL | RBC (3 h): 611.4 x10_4/ul | Ret (3 h): 6.4% | WBC (3 h): 112.8 x10_2/uL | KIDNEY_L (3 h): 1 g | KIDNEY_R (3 h): 1 g | KIDNEY_TOTAL (3 h): 1.9 g | LIVER (3 h): 10 g | A/G (3 h): 1.3 | ALP (3 h): 1670.4 IU/L | ALT (3 h): 45.2 IU/L | AST (3 h): 76.6 IU/L | BUN (3 h): 13.6 mg/dL | CRE (3 h): 0.2 mg/dL | Ca (3 h): 11 mg/dL | Cl (3 h): 105.6 meq/L | DBIL (3 h): 0 mg/dL | GLC (3 h): 181.6 mg/dL | IP (3 h): 7.8 mg/dL | K (3 h): 4.2 meq/L | LDH (3 h): 180.2 IU/L | Na (3 h): 141.4 meq/L | PL (3 h): 143.4 mg/dL | RALB (3 h): 3 g/dL | TBIL (3 h): 0.02 mg/dL | TC (3 h): 73.2 mg/dL | TG (3 h): 72.4 mg/dL | TP (3 h): 5.4 g/dL | gamma-GTP (3 h): 1 IU/L | TERMINAL_BW (6 h): 208.1 g | APTT (6 h): 22.9 s | Bas (6 h): 0% | Eos (6 h): 0.8% | Fbg (6 h): 316.4 mg/dL | Hb (6 h): 13.1 g/dL | Ht (6 h): 39.2% | Lym (6 h): 72.8% | MCH (6 h): 20.5 pg | MCHC (6 h): 33.5% | MCV (6 h): 61 fL | Mono (6 h): 3.2% | Neu (6 h): 22.2% | PT (6 h): 15.9 s | Plat (6 h): 119.1 x10_4/uL | RBC (6 h): 643 x10_4/ul | Ret (6 h): 6.5% | WBC (6 h): 104.4 x10_2/uL | KIDNEY_L (6 h): 0.9 g | KIDNEY_R (6 h): 0.9 g | KIDNEY_TOTAL (6 h): 1.8 g | LIVER (6 h): 8.9 g | A/G (6 h): 1.3 | ALP (6 h): 1246 IU/L | ALT (6 h): 37.4 IU/L | AST (6 h): 71.2 IU/L | BUN (6 h): 11.6 mg/dL | CRE (6 h): 0.1 mg/dL | Ca (6 h): 11.1 mg/dL | Cl (6 h): 105.6 meq/L | DBIL (6 h): 0 mg/dL | GLC (6 h): 182.4 mg/dL | IP (6 h): 9 mg/dL | K (6 h): 4.3 meq/L | LDH (6 h): 153.4 IU/L | Na (6 h): 140.4 meq/L | PL (6 h): 136.8 mg/dL | RALB (6 h): 3 g/dL | TBIL (6 h): 0.026 mg/dL | TC (6 h): 71.4 mg/dL | TG (6 h): 83 mg/dL | TP (6 h): 5.5 g/dL | gamma-GTP (6 h): 1.2 IU/L | TERMINAL_BW (9 h): 212.5 g | APTT (9 h): 21.5 s | Bas (9 h): 0% | Eos (9 h): 1% | Fbg (9 h): 306.4 mg/dL | Hb (9 h): 12.5 g/dL | Ht (9 h): 37.4% | Lym (9 h): 75% | MCH (9 h): 20.6 pg | MCHC (9 h): 33.5% | MCV (9 h): 61.7 fL | Mono (9 h): 2.8% | Neu (9 h): 20.6% | PT (9 h): 16.2 s | Plat (9 h): 130.4 x10_4/uL | RBC (9 h): 607.8 x10_4/ul | Ret (9 h): 7.7% | WBC (9 h): 98.3 x10_2/uL | KIDNEY_L (9 h): 1 g | KIDNEY_R (9 h): 1 g | KIDNEY_TOTAL (9 h): 1.9 g | LIVER (9 h): 8.5 g | A/G (9 h): 1.3 | ALP (9 h): 1182.4 IU/L | ALT (9 h): 35.4 IU/L | AST (9 h): 69.6 IU/L | BUN (9 h): 10.6 mg/dL | CRE (9 h): 0.2 mg/dL | Ca (9 h): 11.1 mg/dL | Cl (9 h): 105.4 meq/L | DBIL (9 h): 0 mg/dL | GLC (9 h): 174 mg/dL | IP (9 h): 9.9 mg/dL | K (9 h): 4.3 meq/L | LDH (9 h): 129.8 IU/L | Na (9 h): 141.6 meq/L | PL (9 h): 132.6 mg/dL | RALB (9 h): 3 g/dL | TBIL (9 h): 0.03 mg/dL | TC (9 h): 71.2 mg/dL | TG (9 h): 81.4 mg/dL | TP (9 h): 5.4 g/dL | gamma-GTP (9 h): 1.2 IU/L | TERMINAL_BW (24 h): 220.5 g | APTT (24 h): 21.8 s | Bas (24 h): 0% | Eos (24 h): 1% | Fbg (24 h): 309.4 mg/dL | Hb (24 h): 13 g/dL | Ht (24 h): 37.8% | Lym (24 h): 82% | MCH (24 h): 20.8 pg | MCHC (24 h): 34.4% | MCV (24 h): 60.5 fL | Mono (24 h): 2.6% | Neu (24 h): 13.6% | PT (24 h): 15.9 s | Plat (24 h): 114.8 x10_4/uL | RBC (24 h): 627.2 x10_4/ul | Ret (24 h): 6.2% | WBC (24 h): 91 x10_2/uL | KIDNEY_L (24 h): 1 g | KIDNEY_R (24 h): 1 g | KIDNEY_TOTAL (24 h): 2 g | LIVER (24 h): 9.9 g | A/G (24 h): 1.2 | ALP (24 h): 1421.6 IU/L | ALT (24 h): 43 IU/L | AST (24 h): 72.2 IU/L | BUN (24 h): 17.8 mg/dL | CRE (24 h): 0.2 mg/dL | Ca (24 h): 11.1 mg/dL | Cl (24 h): 104.4 meq/L | DBIL (24 h): 0 mg/dL | GLC (24 h): 188.6 mg/dL | IP (24 h): 8.6 mg/dL | K (24 h): 4.3 meq/L | LDH (24 h): 156.6 IU/L | Na (24 h): 141.4 meq/L | PL (24 h): 153 mg/dL | RALB (24 h): 3.1 g/dL | TBIL (24 h): 0.018 mg/dL | TC (24 h): 75.8 mg/dL | TG (24 h): 119.4 mg/dL | TP (24 h): 5.5 g/dL | gamma-GTP (24 h): 1.2 IU/L
